Data on twelve compounds can be found in publication PMC6592549, “Ligand-guided homology modeling drives identification of novel histamine H3 receptor ligands” (PLoS ONE, 2019).

Read-outs that look alike come from different tables or passages of the source.

For experiment [1], the target named is Histamine H3 receptor (H3R). As to conditions: Table A in S1 File, cited from earlier work.
Experiment [2] addresses Histamine H3 receptor (H3R). As to conditions: Table A in S1 File, cited from earlier work. The source holds these as a separate data set.
Experiment [3] addresses T1, hH3R (Homo sapiens, UniProt Q9Y5N1).
T1 construct: expressed in transfected cells; host or cells: HEK-293 cells stably expressing hH3R
The experiment can be described thus: Radioligand depletion assay with [3H]-N-alpha-methylhistamine on crude hH3R membrane extracts. The experiment is classed as binding. As to conditions: for Ki: mean of at least three independent experiments, each in triplicates, Cheng-Prusoff; for H3R binding, result in words: radioligand depletion assay against H3R. How it is done: Radioligand depletion assays were performed as described previously using crude hH3R membrane extracts obtained from HEK-293 cells stably expressing the hH3R [15, 57]. Briefly, crude membrane extracts were incubated with various concentrations of test ligands (between 0.01 nM and 100 μM) and [3H]-N-alpha-methylhistamine. Bound radioligand were harvested through GF/B filters and measured using liquid scintillation counting. Data analysis were performed with GraphPad Prism 6 using non-linear regression. The Ki values for each experiment were obtained according to Cheng-Prusoff and converted to pKi values to allow statistical analysis. Mean values were calculated from at least three independent experiments, each performed in triplicates (Table E in S1 File).

One may read the Ki as the dissociation constant of the complex between target and ligand, obtained from inhibition or displacement. Broadly, the IC50 is the concentration that gives 50% inhibition.

T1 sequence (Q9Y5N1 whole entry): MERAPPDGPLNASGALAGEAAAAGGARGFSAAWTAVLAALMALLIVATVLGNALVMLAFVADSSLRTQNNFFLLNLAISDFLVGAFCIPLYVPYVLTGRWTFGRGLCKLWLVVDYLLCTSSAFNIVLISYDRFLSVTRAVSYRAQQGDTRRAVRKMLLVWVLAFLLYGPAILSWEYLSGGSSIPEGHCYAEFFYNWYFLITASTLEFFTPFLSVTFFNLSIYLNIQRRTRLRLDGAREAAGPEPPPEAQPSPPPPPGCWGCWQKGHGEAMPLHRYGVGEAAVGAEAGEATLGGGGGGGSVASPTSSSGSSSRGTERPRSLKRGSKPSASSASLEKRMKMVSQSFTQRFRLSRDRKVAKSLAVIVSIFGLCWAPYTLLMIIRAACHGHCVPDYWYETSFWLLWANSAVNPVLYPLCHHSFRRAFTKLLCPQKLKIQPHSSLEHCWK

For the compound `c1nc([C@H]2C[C@@H]2CCNCC2CCCCC2)c[nH]1` [CHEMBL214312], in experiment [1] (ref 7 (S1 File)), the Ki was 5.3 nM. `N#CC(C#N)=C1N(CCCN2CCCCC2)CCN1CCCN1CCCCC1` [CHEMBL257391]: in experiment [1] (ref 6 (S1 File)), the Ki was 2.4 nM. Regarding `C[C@@H]1CCCN1CCc1cc2cc(CNc3ccc(Cl)nn3)ccc2o1` [CHEMBL362952], the inhibition constant Ki in experiment [1] (ref 10 (S1 File)) was 0.3 nM. Regarding `C[C@@H]1C[C@@](O)(C#Cc2cccc3ccccc23)[C@@H](C)CN1C` [CHEMBL1269844], in experiment [2] (ref 3 (S1 File)), the IC50 was 9 nM. As to `C[C@@H]1CCCN1CCCOc1ccc(-c2cc(-c3ccccc3)c(=O)n(C)c2)cc1` [CHEMBL1923737], the Ki in experiment [1] (ref 5 (S1 File)) is 3.5 nM. Turning to `CCNC(=O)C1CC(F)(c2ccc(CN3CCCC3)c(F)c2)C1` (centres unmarked) [CHEMBL2151197], the Ki in experiment [1] (ref 9 (S1 File)) is 2.3 nM. With `CN(C)CCc1ccc(NC(=O)Nc2ccc(CCN(C)C)cc2)cc1` [CHEMBL2387294], the IC50 in experiment [2] (ref 2 (S1 File)) was 6.5 nM.

Turning to `c1ccc2c(CCNc3ccc(CN4CCOCC4)cc3)c[nH]c2c1` [CHEMBL2419581], the inhibition constant Ki in experiment [1] (ref 4 (S1 File)) was 4.3 nM. `CC(C)N1CCN(C(=O)[C@H]2CC23CCN(C2CCOCC2)CC3)CC1` [CHEMBL3124968]: the IC50 in experiment [2] (ref 8 (S1 File)) is 8.3 nM. Regarding `O=C(c1csc(-c2ccccc2)n1)N1CCCN(C2CC2)CC1` [compound 5], in experiment [3], the inhibition constant (Ki) worked out at 148 nM and the “H3R binding, result in words” value is “nanomolar concentration ranges”. In the same order, the values of `CCN1CCN(C(=O)c2ccc(-c3nc4ccccc4s3)s2)CC1` [compound 6] are 38.2 nM and “nanomolar concentration ranges”.

Take `Cc1csc(-c2ccc(C(=O)N3CCN(C)CC3)cc2)n1` [compound 8]: the “H3R binding, result in words” value in experiment [3] was “inactive”.
